Legend:
[1] = test system: alcohol-preferring (P) rats; assay: Ethanol consumption, 24-hour-access two-bottle choice (10% ethanol vs. water), P rats; format: in vivo, rat; settings: for decrease from baseline in alcohol consumption: Example 1, topiramate 10 mg/kg IP, ondansetron 0.001 mg/kg IP, test session, mean±SE of 17 rats; for decrease from baseline in alcohol consumption / preference for ethanol over water, average on test sessions / preference for ethanol over water, baseline change: P rats; for ethanol consumption vs baseline: Example 4, P rats N=18, topiramate 10 mg/kg, ondansetron 0.001 mg/kg, FIG. 4A; for preference for ethanol over water, average on test sessions: baseline average preference 0.6±0.2; for preference for ethanol over water, baseline change: test sessions
Protocol: Combined effect of topiramate (10 mg/kg, IP) and ondansetron (0.001 mg/kg, IP) on alcohol consumption in alcohol-preferring (P) rats. […] Data were plotted across 7 consecutive sessions, which include a 3-day baseline period, the test session in which the ondansetron and/or topiramate injection was administered, and the 3 sessions that followed the test session. […]
(§1) The effects of ondansetron and topiramate were examined for their ability to modulate two important aspects of alcohol abuse: total consumption and relapse. Total consumption was examined under a 24-hour-access two-bottle choice procedure wherein rats had unlimited access to alcohol solutions (10%) and water. Alcohol relapse was assessed in alcohol-dependent rats by examining alcohol consumption following an extended abstinence period. Specifically, in alcohol-dependent rats, when alcohol is reintroduced following an extended abstinence period, rats show marked increases in consumption as compared with levels of consumption prior to abstinence.
(§2) 1) The combination of topiramate and ondansetron reduces ethanol consumption in rats: Total consumption was examined under a 24-hour-access two-bottle choice procedure (10% ethanol vs. water). To induce drinking, both Wistar and P rats were trained onto ethanol using a standard sucrose fading procedure. […] At baseline, the average preference was 0.6±0.2, and the average values observed on test sessions with topiramate alone, ondansetron alone, the combination of topiramate and ondansetron, and vehicle were 0.51±0.2 (−9±4% baseline change), 0.58±0.0 (1±2%), 0.51±0.03 (−11±4%), and 0.59±0.03 (1%±0), respectively. […] At baseline, the average preference ratio was 0.30±0.03 and the average values observed on test sessions with topiramate alone, ondansetron alone, the combination of topiramate and ondansetron, and vehicle were 0.25±0.03 (−6±7% baseline change), 0.26±0.04 (2±2%), 0.31±0.02 (1±3%; P<0.05), and 0.3±0.03 (6%±4), respectively.

[2] = test system: alcohol-preferring (P) rats; assay: Alcohol deprivation effect (ADE, relapse model), P rats; format: in vivo, rat; settings: for alcohol deprivation effect (ADE), consumption 24 hours after ethanol reinstated: Example 4, chronic daily treatment from day 8 of 15-day withdrawal, topiramate 10 mg/kg, ondansetron 0.001 mg/kg, FIG. 5A
Protocol: as §1

Wistar rats = assay: Ethanol consumption, 24-hour-access two-bottle choice, Wistar rats; format: in vivo, rat; settings: for alcohol consumption, change from baseline: Example 3, ondansetron 0.001 or 0.01 mg/kg with topiramate 10 mg/kg IP, 4 to 5 rats, FIG. 3; for alcohol consumption, change from baseline / preference ratio for ethanol over water, average on test sessions / preference for ethanol over water, baseline change: Wistar rats; for ethanol consumption: Example 4, Wistar rats n=5, preliminary, FIG. 4B; for preference ratio for ethanol over water, average on test sessions: baseline average 0.30±0.03; for preference for ethanol over water, baseline change: test sessions
Protocol: Combined effect of topiramate (5 and 10 mg/kg, IP) and ondansetron (0.001 and 0.01 mg/kg, IP) on alcohol consumption in Wistar rats. […] The experiments utilized four to five rats per condition. Data are expressed as change from baseline levels of alcohol consumption.
as §1, §2

early-onset alcoholics [3] = settings: ondansetron in early-onset alcoholics
early-onset alcoholics [4] = settings: cited from earlier work
[5] = test system: alcohol-dependent subjects; assay: Topiramate alone in alcohol dependence (comparison data from a different study); format: in vivo, human
[6] = test system: alcohol-dependent subjects; settings: topiramate alone, cited from earlier work

Row | Structure (SMILES) | decrease from baseline in alcohol consumption [1] | ethanol consumption vs baseline [1] | preference for ethanol over water, average on test sessions [1] | preference for ethanol over water, baseline change [1] | alcohol deprivation effect (ADE), consumption 24 hours after ethanol reinstated [2] | alcohol consumption, change from baseline (Wistar rats) | ethanol consumption (Wistar rats) | preference ratio for ethanol over water, average on test sessions (Wistar rats) | preference for ethanol over water, baseline change (Wistar rats) | also measured
1 | Cc1nccn1CC1CCc2c(c3ccccc3n2C)C1=O (stereo not drawn) [Ondansetron, 9-methyl-3-[(2-methyl-1H-imidazol-1-yl)methyl]-1,2,3,9-tetrahydrocarbazol-4-one] | 1%±7% | did not impact ethanol consumption on its own | 0.58±0.0 | 1±2% | blocked the ADE | lack of modulation | no affect was observed on consumption | 0.26±0.04 | 2±2% | Cohen's effect size: drinks per day (early-onset alcoholics [3]): −0.55; Cohen's effect size: drinks per drinking day (early-onset alcoholics [3]): −0.48; Cohen's effect size: percentage of days abstinent (early-onset alcoholics [3]): +0.27; report of weight loss (early-onset alcoholics [4]; individuals taking ondansetron alone): no appreciable report of weight loss; paresthesia (early-onset alcoholics [4]; ondansetron administered alone): not associated with paresthesia; mean reduction in drinks per day (early-onset alcoholics [4]; ondansetron alone in early-onset alcoholics): −3.28 drinks per day
2 | CC1(C)O[C@@H]2[C@@H](CO[C@@]3(COS(N)(=O)=O)OC(C)(C)O[C@@H]23)O1 [Topiramate, 2,3:4,5-Bis-O-(1-methylethylidene)-beta-D-fructopyranose sulfamate] | 13±5% | significant decrease from baseline ethanol consumption | 0.51±0.2 | −9±4% | blocked the ADE | lack of modulation | no affect was observed on consumption | 0.25±0.03 | −6±7% | alcohol consumption following a two-week abstinence period (alcohol deprivation effect) ([2]; Example 2, topiramate 10 mg/kg IP, ondansetron 0.001 mg/kg IP, 2 to 3 rats, FIG. 2): attenuated the alcohol deprivation effect; Cohen's effect size: drinks per day [5]: −0.80; Cohen's effect size: drinks per drinking day [5]: −0.63; Cohen's effect size: percentage of days abstinent [5]: +0.73; adverse event rate: dizziness ([6]; different study): 28%; adverse event rate: paresthesia ([6]; different study): 54%; adverse event rate: slowing in psychomotor performance ([6]; different study): 27%; individuals reporting weight loss [6]: 19.7%; frequency of paresthesia ([6]; share of individuals): over 50%

From patent US20100041689A1, “Combined Effects of Topiramate and Ondansetron on Alcohol Consumption” (UNIVERSITY OF VIRGINIA PATENT FOUNDATION, priority 2006, published 2010)
